Some test systems named below: DLD-1; DMS-114; DMS-273; HOP-18; KM-20L2; SNB-78; XF498; RXF 631; BT-549.
Common to all, as to experiment: NCI-60 cell line screen, 48 h

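How tested: cells in 96-well plates exposed to compound for 48 hours at five concentrations. At the GI50, growth is halved.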 Calls of active or inactive are those of the source. No stated cut-off is given here; in the data, active = GI50 up to about 1.1 µM and inactive = higher.

Regarding `Cc1ccc(NC(=O)C(=O)Cc2cc[n+]([O-])cc2)cc1`, the GI50 in the test on DLD-1, in the test with DMS-114, with DMS-273, in the test with HOP-18, in the test on KM-20L2 and with SNB-78 was > 100 µM (inactive) throughout. In addition, in the test on XF498, the GI50 is > 100 µM (inactive).

For `COc1ccc(/C=C/c2cc(OC)c(OC)c(OC)c2)cc1`, the GI50 with DLD-1 was 0.897 µM (active); in the test on DMS-114 it was 27 µM (inactive); in the test on DMS-273, 2.8 µM (inactive); in the test on KM-20L2, 2.34 µM (inactive); with RXF 631, 3.73 µM (inactive); in the test on SNB-78 it was 17.8 µM (inactive). Besides, the GI50 in the test on XF498 is 0.592 µM (active).

Take `COc1cc(OC)c(OC)cc1/C=N/NC(=O)N/N=C/c1cc(OC)c(OC)cc1OC`: the GI50 in the test with DMS-114 is > 100 µM (inactive); in the test with DMS-273, > 100 µM (inactive); with HOP-18, > 100 µM (inactive); in the test with KM-20L2, > 100 µM (inactive); in the test with SNB-78, > 100 µM (inactive); with XF498, 72.4 µM (inactive).

Regarding `C[C@@]12CCCc3coc(c31)C(=O)c1cc3c(cc12)C(=O)C=CC3=O` [XESTOQUINONE], the GI50 with DLD-1 was 2.54 µM (inactive); with DMS-114 it was 18.5 µM (inactive); with HOP-18, 15 µM (inactive); with KM-20L2, 18.4 µM (inactive); in the test with XF498 it was 16.1 µM (inactive).

For the compound `Oc1ccc(I)c2cccnc12`, the GI50 in the test on DLD-1 is 3.99 µM (inactive); in the test on DMS-273 it was 2.04 µM (inactive); in the test on HOP-18, 8.07 µM (inactive); in the test on KM-20L2, 50.4 µM (inactive); with SNB-78, 56.9 µM (inactive); in the test with XF498, 38.9 µM (inactive).

For `BrC(Br)=C1C(=C(Br)Br)C(Br)C1Br` (stereo unspecified), the GI50 with BT-549 was 0.327 µM (active); in the test on DLD-1 it was 0.573 µM (active); with DMS-114 it was 0.256 µM (active); with DMS-273, 0.126 µM (active); with HOP-18, 2.91 µM (inactive); with KM-20L2, 1.38 µM (inactive). The GI50 in the test on SNB-78 was 1.32 µM (inactive).

For `Cc1cc(N(CCC#N)CCC#N)ccc1/C=C1N=C(/C=C\c2ccccc2)N(c2ccc(C(=O)O)cc2)C\1=O`, the GI50 with DLD-1, in the test on DMS-114, with HOP-18, with KM-20L2, in the test with RXF 631 and with SNB-78 was > 100 µM (inactive) in each case.

For the compound `COC1OC(CO)C(O)C1N` (stereo unspecified), the GI50 in the test on DLD-1, in the test with DMS-114, in the test on HOP-18, with KM-20L2, in the test on RXF 631 and in the test on SNB-78 was > 100 µM (inactive) throughout.

For the compound `CCOCN1COCN(C)C1=O`, the GI50 in the test with DLD-1, with DMS-273, in the test on HOP-18, in the test on KM-20L2, in the test on RXF 631 and with SNB-78 was > 100 µM (inactive) each time. The GI50 with XF498 is > 100 µM (inactive).

With `CC(/C=C/c1ccccc1)=N\N=C(C)\C=C\c1ccccc1`, the GI50 in the test with DLD-1, in the test with DMS-273, with KM-20L2, in the test on SNB-78 and in the test on XF498 was > 100 µM (inactive) throughout.

For the compound `Cc1ccc2c(CC(=O)O)cc(=O)oc2c1`, the GI50 is > 100 µM (inactive) in the test with DLD-1; > 100 µM (inactive) in the test on DMS-114; 37.2 µM (inactive) with DMS-273; > 100 µM (inactive) in the test on HOP-18; > 100 µM (inactive) in the test on KM-20L2; 2.86 µM (inactive) in the test on XF498.

Take `Cc1ccc(/C=C/C(=O)C(C)(C)CN2CCCCC2)cc1`: the GI50 with DMS-273 was 3.02 µM (inactive); in the test on KM-20L2, 2.86 µM (inactive); in the test on RXF 631, 14.5 µM (inactive); in the test on SNB-78 it was 7.29 µM (inactive); in the test on XF498 it was 11.7 µM (inactive).

With `O=C(N/C(=C\c1cc(Cl)ccc1Cl)c1nc2ccccc2[nH]1)c1ccccc1`, the GI50 with DLD-1 is 17.1 µM (inactive); in the test with DMS-114, 35.3 µM (inactive); with KM-20L2 it was 34 µM (inactive); in the test with RXF 631, 22.3 µM (inactive); with SNB-78, 45.4 µM (inactive); in the test with XF498, 26.9 µM (inactive).

Take `CCOC(=O)c1nc2ccc(Cl)cc2c2c1Cc1ccccc1-2`: the GI50 with DLD-1, in the test with DMS-273, in the test with HOP-18, in the test on KM-20L2, with SNB-78 and with XF498 was > 100 µM (inactive) in each case.

As for `Cc1c(Cl)cccc1NC(=O)C(=O)C(C(=O)c1ccccc1-c1ccccc1)C1OC(=O)c2ccccc21` (stereo unspecified), the GI50 in the test on DLD-1 was 22.8 µM (inactive); with DMS-114 it was 16 µM (inactive); with DMS-273, 24.4 µM (inactive); in the test on KM-20L2, 23.7 µM (inactive); with RXF 631, 23.7 µM (inactive); in the test on SNB-78, 22.2 µM (inactive). For the same compound, in the test on XF498, the GI50 was 11.5 µM (inactive).

Regarding `CCN(CC)/[N+]([O-])=N/OCC(C)O` (stereo unspecified), the GI50 in the test on DMS-114, in the test with DMS-273, in the test on RXF 631, with SNB-78 and with XF498 was > 100 µM (inactive) in each case.

For the compound `CCCN(CCCC(NC(C)=O)C(=O)NCc1ccccc1)C(=O)N(C)N=O` (stereo unspecified), the GI50 in the test with DLD-1, with DMS-114, in the test with DMS-273, in the test on KM-20L2, with SNB-78 and with XF498 was > 100 µM (inactive) throughout.

As for `Cn1c(=O)nc2n(-c3cc(Cl)ccc3Cl)c3ccccc3nc-2c1=O`, the GI50 in the test with DLD-1 was 1.53 µM (inactive); in the test on DMS-114, 2.11 µM (inactive); in the test on DMS-273, 3.67 µM (inactive); with HOP-18, 12.4 µM (inactive); in the test with KM-20L2, 2.93 µM (inactive); in the test on SNB-78 it was 13.5 µM (inactive). Besides, the GI50 in the test with XF498 was 7.76 µM (inactive).

For `COc1ccc(C#CCC(OC2OC(CO)C(O)C(O)C2O)C(O)c2ccc(OC)c(OC)c2)cc1OC` (stereo unspecified), the GI50 in the test with DLD-1, in the test with DMS-273, in the test with HOP-18, with KM-20L2 and in the test on SNB-78 was > 100 µM (inactive) each time.

For `CN(C)CCNC(=O)c1ccc2ccc3cccnc3c2n1`, the GI50 was 6.55 µM (inactive) in the test on DLD-1; 12.1 µM (inactive) in the test on DMS-114; 6.89 µM (inactive) in the test with DMS-273; 26.2 µM (inactive) in the test on HOP-18; 9.57 µM (inactive) in the test on KM-20L2; 7.78 µM (inactive) with SNB-78.

Turning to `Cc1c2ccccc2c(C)c2c3c(ccc12)C(=O)C=CC3=O`, the GI50 in the test on DLD-1 is 18.5 µM (inactive); in the test with DMS-114 it was 11.8 µM (inactive); in the test with DMS-273, 64.7 µM (inactive); with HOP-18, 23.8 µM (inactive); in the test with KM-20L2, 41.9 µM (inactive); in the test on SNB-78, 16.3 µM (inactive). Besides, the GI50 in the test with XF498 is 17 µM (inactive).

Turning to `O=S(=O)(Cc1ccccc1)SCc1ccccc1`, the GI50 with DLD-1 is 7.71 µM (inactive); with DMS-114, 17.5 µM (inactive); with DMS-273 it was 29.9 µM (inactive); with HOP-18, 18.9 µM (inactive); in the test on KM-20L2 it was 21.6 µM (inactive); in the test on RXF 631, 19.1 µM (inactive). In addition, the GI50 in the test with SNB-78 is 19.3 µM (inactive).

`CN1CCC(O)C(CNC23CC4CC(CC(C4)C2)C3)C1` (stereo unspecified): the GI50 in the test on DLD-1 was > 100 µM (inactive); with DMS-114 it was > 100 µM (inactive); with DMS-273, > 100 µM (inactive); in the test with KM-20L2, 59 µM (inactive); with RXF 631 it was > 100 µM (inactive); with SNB-78 it was > 100 µM (inactive). Moreover, in the test on XF498, the GI50 is > 100 µM (inactive).

`C=C(CBr)CCCOCc1ccccc1`: the GI50 in the test with BT-549 is 15 µM (inactive).

As for `COC(=O)/C(=N\NC(=O)c1ccccc1O)C(C#N)c1ccccc1` (stereo unspecified), the GI50 was 24 µM (inactive) in the test on DLD-1; 15.9 µM (inactive) in the test with DMS-114; 19 µM (inactive) in the test on DMS-273; > 50 µM (inactive) in the test on KM-20L2; 23.4 µM (inactive) in the test on SNB-78; 17.3 µM (inactive) with XF498.

For the compound `COc1ccc2c(c1)c(=Cc1ccc(N(C)C)cc1)c1cc(-c3ccccc3)[n+](C)n12`, the GI50 with BT-549 is 0.0182 µM (active).

Consider `CCOC(=O)c1c(N2CCCC2)[nH]c(=O)c(C(c2c(O)c(C(=O)OCC)c(N3CCCC3)[nH]c2=O)C(C)C)c1O`, for which the GI50 with BT-549 is 32.4 µM (inactive).

In the case of `CC(=O)NC1C(OCc2ccccc2)OC(CO)C(O)C1OC(C)C(=O)NC(C(=O)N[C@@H](CCC(=O)NCCNCCNc1c2ccccc2nc2cccc([N+](=O)[O-])c12)C(N)=O)C(C)C` (stereo partly specified), the GI50 in the test with BT-549 was > 100 µM (inactive).

`O=[N+]([O-])c1ccc(/N=N/N2CCCC2)cc1`: the GI50 with BT-549 was > 100 µM (inactive).

Consider `CCOC(=O)C(NC(=O)OC(C)(C)C)C(=O)OCC`, for which the GI50 in the test on BT-549 was > 100 µM (inactive).

In the case of `C=CC/N=C1/N=C(CC(=O)OCC)CS1`, the GI50 in the test with DLD-1, in the test with DMS-114, in the test with DMS-273, with HOP-18, in the test on KM-20L2 and in the test on SNB-78 was > 100 µM (inactive) each time. Moreover, the GI50 with XF498 is > 100 µM (inactive).

As for `O=C(/C=C/c1ccc(O)c(O)c1)OCCOC(=O)/C=C/c1ccc(O)c(O)c1`, in the test with BT-549, the GI50 is 34.4 µM (inactive).

In the case of `O=c1oc2ccc([N+](=O)[O-])cc2cc1-c1csc(-c2ccccc2)n1`, the GI50 in the test on BT-549 is > 100 µM (inactive).

Consider `CC(=O)N(C)c1ccc2ncccc2c1[N+](=O)[O-]`, for which the GI50 in the test on DLD-1, in the test on DMS-114, with DMS-273, in the test on HOP-18, in the test with KM-20L2 and in the test with SNB-78 was > 100 µM (inactive) in each case. In addition, the GI50 in the test on XF498 was > 100 µM (inactive).

As for `C/C=C/[C@H]1O[C@@](OC)([C@@H](C)[C@H](O)[C@H](C)[C@H]2OC(=O)/C(OC)=C/C(C)=C/[C@@H](C)[C@@H](O)[C@@H](C)[C@@H](O)[C@H](C)C/C(C)=C/C=C/[C@@H]2OC)CC(OC2CC(O)C(OC(N)=O)C(C)O2)[C@@H]1C` (stereo partly specified), in the test on BT-549, the GI50 is < 0.01 µM (active).

The record behind these values is ChEMBL document CHEMBL1201862, “PubChem BioAssay data set” (2004).
